Source: patent US6399568B1, “Cyclic tetrapeptide derivatives and medicinal use thereof” (Japan Energy Corporation, priority 1997, dated 2002)
Like-named read-outs stand apart in the source and are kept apart here. Non-standard residues stand in square brackets, D forms with d. Residues, ends and D or L forms follow the SMILES beside them. ξ: configuration not given here. *: point of attachment. Asu = N[C@@H](CCCCCC(=O)O)C(=O)O; ξPip = O=C(O)C1CCCCN1; Aib = CC(C)(N)C(=O)O; NHOH = ON*

What was measured:
B16/BL6 cells [1] = test: MHC class-I molecule expression promoting activity; assay type: cell-based, mouse; settings: for MHC class-I molecule expression promoting action: FIGS. 3 and 4, dependence on concentration of addition; for Twice Promoting Concentration Cx2: concentration at which MHC class-I expression is twice that without addition; for Twice Promoting Concentration Cx2 / conc. for 2-fold expression (nM) mean: 72 hours; for conc. for 2-fold expression (nM) mean: mean of a plurality of assays
Description: The cancer cells used were mouse melanoma cells, B16/BL6 cells, provided by, the National Cancer Institute, U.S.A. Said cells were cultivated in MEM media supplemented with 10% FBS at 37° C. in the presence of 5% carbon dioxide in an humidified incubator.
A compound to be tested was preliminarily dissolved in dimethyl sulfoxide (DMSO) and adjusted to a concentration of 100 mM or 10 mM (source solution).
Said B16/BL6 cells were inoculated on 96 well microplate at a cell density of 5000 cells per well, each well containing 200 μl of said medium. […] Thereafter, each well was once washed with PBS (phosphate buffered saline) and floating cells and the medium were removed. Then, the well was treated with 0.1% glutaraldehyde solution for 3 minutes to fix the cells.
The amount of MHC class-I molecule expressed on the surface of the fixed cells was measured by the following method. Anti-H-2K^bD^bD^d antibody, which is an antibody against mouse MHC classI molecule (commercially available from Meiji Milk Co., Ltd), was used as a primary antibody, biotinylated anti-mouse IgG+M (commercially available from Chemicon) was used as a secondary antibody, and streptavidin-β-galactosidase conjugate (commercially available from BRL) was reacted as a labelling enzyme. The amount of the thus labelled enzyme β-galactosidase was measured in a microplate reader by recording the fluorescent intensity (excitation: 365 nm, fluorescence: 450 nm) derived from the enzymaticreaction product using 4-methylumbelliferyl-β-D-galactoside (commercially available from Nacalai Tesque) as a substrate. […] The value obtained by subtracting said background level from the, actually measured value (an apparent value including the background level) was the true measurement reflecting the amount of expressed MHC class-I molecule.
A group without the addition of any compound to be tested was used as a reference group and the measurement of MHC class-I molecule expressed in said group was used as a standard value. The amount of MHC class-I molecule expressed at a concentration of addition of each test compound is shown as a relative amount, said standard value taken as one (1). For each compound to be tested, various concentrations of addition were selected to investigate the dependency of MHC class-I molecule expression promoting action on the concentration of addition.

[2] = system: colon cancer Colon26 cell line; test: Cell proliferation inhibition (72 hours); assay type: cell-based, mouse; settings: read-out: 50% proliferation inhibiting concentration Colon 26 (nM) mean
Text: (§1) In order to verify the action of the cyclic tetrapeptide derivative according to the present invention in inhibiting cell proliferation in cancerized cells, the action on the proliferation of the aforementioned B16/BL6 cells was investigated. The evaluation of cell proliferation rates was done utilizing a commercially available measuring kit, specifically, from Promega under the trade name CellTiter 96 Aqueous Non-Radioactive Proliferation Assay Kit. In the measuring kit, the amount of products through reduction of a reagent tetrazolium compound (3-(4,5-dimethylthiazol-2-yl)-5-(3-carboxymethoxyphenyl)-2-(4-sulfophenyl)-2H-tetrazolium, inner salt; MTS) by viable animal cells is determined by detecting spectrophotometrically the color generated from the products. Since the amount of products is proportional to the amount of viable cells, this kit is utilized to evaluate the amount of viable cells.
(§2) According to the procedure of Test Example 1, B16/BL6 cells are inoculated in a 96 well microplate and cultured for 24 hours. Then, 10 μl of a solution of the source solution of a compound to be tested which has been diluted to a predetermined amount per well is added. Thereafter, culture is continued for additional 48 hours and 20 μl of a reagent solution in the aforementioned CellTiter 96 Aqueous Non-Radioactive Proliferation Assay Kit is then added. After incubation is continued at 37° C. for 1 hour, the amount of color generation is measured as an absorbance at 490 n musing a microplate reader.
(§3) The amount of cell proliferation of a group to which a compound to be tested is added is expressed in a relative value as compared to the standard cell proliferation (100%) in a control group to which no compound to be tested is added. For each compound tested, the amounts of cell proliferation were measured at different concentrations of addition and the dependence of the quantitative cell proliferation on the concentration of addition was investigated. From the results, a concentration of addition at which the amount of cell proliferation was inhibited by 50% relative to the amount of cell proliferation in the control group without addition was determined.
(§4) The test method was in accordance with the above-mentioned procedure, except that the period of incubation after the addition of a compound was 72 hours.
(§5) As illustrative examples, results are shown for an evaluation using mouse malignant melanoma B16/BL6 and B16 cell lines; leukemia L1210 cell line, colon cancer Colon26 cell line, and liver cancer MH134 cell line as cancer cells. For the cell proliferation inhibiting action of each compound tested for these cancer cells, 50% proliferation inhibiting concentrations are shown in Table 4.

leukemia L1210 cell line = test: Cell proliferation inhibition (72 hours); assay type: cell-based, mouse; settings: read-out: 50% proliferation inhibiting concentration L1210 (nM) mean
Text: as §1, §2, §3, §4, §5

[3] = system: liver cancer MH134 cell line; test: Cell proliferation inhibition (72 hours); assay type: cell-based, mouse; settings: read-out: 50% proliferation inhibiting concentration MH134 (nM) mean
Text: as §1, §2, §3, §4, §5

[4] = system: mouse malignant melanoma B16/BL6 cell line; assay type: cell-based; settings: 72 hours; read-out: 50% proliferation inhibiting concentration B16/BL6 (nM) mean
Text: as §1
as §2, with “Then, 10 μl of a solution of the source solution of a compound to be tested which has been diluted to a predetermined amount per well is added.” left out
as §3, with “investigated.” for “investigated. From the results, a concentration of addition at which the amount of cell proliferation was inhibited by 50% relative to the amount of cell proliferation in the control group without addition was determined.”
as §4

[5] = system: mouse malignant melanoma B16 cell line; test: Cell proliferation inhibition (72 hours); assay type: cell-based; settings: read-out: 50% proliferation inhibiting concentration B16 (nM) mean
Text: as §1, §2, §3, §4, §5

[6] = target: Mouse histone deacetylase; assay type: biochemical
Description: In an enzyme system using a radio-labelled acetylated histone as a substrate, histone deacetylase enzyme inhibiting activity was evaluated. The basic conditions were in accordance with the method of Yoshida et al. (J. Biol. Chem., 265, 17174-17179, 1990).
Mouse histone deacetylase to be used was partially purified from FM3A cells. Cells were suspended in HDA buffer (15 mM potassium phosphate, 5% glycerol, 0.2 mM EDTA, pH 7.5), homogenized and centrifuged (35000×g, 10 min) to collect the nuclei which in turn were homogenized in the same buffer containing 1 M (NH4)2SO4. After ultrasonic disruption and centrifugation, the concentration of (NH4)2SO4 in the supernatant was increased to 3.5 M to precipitate deacetylase enzyme proteins. This precipitate was redissolved in HDA buffer, dialyzed against HDA buffer, applied to DEAE-cellulose column and eluted in NaCl gradient. Active fractions were used as a histone deacetylase enzyme solution.
As a substrate, [^3H]acetyl histone was used. In a culture solution of FM3A cells in the presence of 5 mM sodium n-butyrate, [^3H]acetate was added, followed by incubation for 30 minutes to radio-label the histone. The histone was prepared in a conventional manner and used as a substrate solution.
An assay was performed by adding a compound to be tested at a given concentration while using a no-addition control group, and by incubating the substrate solution and the enzyme solution at 37° C. for 10 minutes (reaction volume, 100 μl). The enzyme reaction was stopped by adding 10 μl of concentrated hydrochloric acid and the excised [^3H]acetate was extracted with ethyl acetate for radioactivity measurement. The inhibiting activity was expressed by a concentration at which the enzyme activity in the control group was inhibited by 50% (50% inhibiting concentration).

histone deacetylase = test: Histone deacetylase enzyme inhibiting activity, synthetic peptide substrate; assay type: biochemical, mouse; settings: enzyme from B16/BL6 cells; [3H]acetylated histone H4 peptide; 37° C. 3 hours
Description: The preparation of histone deacetylase was performed essentially according to the method of Yoshida et al. (J. Biol. Chem., 265,17174-17179, 1990). The enzyme to be used was partially purified from B16/BL6 cells. The cells were suspended in HDA buffer (15 mM potassium phosphate, 5% glycerol, 0.2 mM EDTA, […], pH 7.5), homogenized and centrifuged (2500×g, 10 min) to collect the nuclei, which in turn were homogenized in the same buffer containing 1 M (NH4)2SO4. After ultrasonic disruption and centrifugation, the concentration of (NH4)2SO4 in the collected supernatant was increased to 3.5 M to precipitate histone deacetylase. This precipitate was redissolved in HDA buffer, subjected to gel filtration to replace the solvent with HDA buffer, and used as a crude histone deacetylase enzyme solution.
As a substrate, a synthetic substrate peptide, [^3H]acetylated histone H4 peptide was used. This [^3H]acetylated histone H4 peptide was obtained by synthesizing the N-terminal peptide of histone H4; […] (the C-terminal being cysteine) and radio-acetylating with ^3H -acetic anhydride.
An assay was performed by incubating the synthetic substrate solution and the enzyme solution at 37° C. for 3 hours in the presence of a compound to be tested (reaction volume, 100 μl). The reaction was stopped by adding 25 μl of 1 M HCl and 0.2 M acetic acid and [^3H]acetate excised by the enzyme reaction was extracted with ethyl acetate for radioactivity measurement. As a control group, the same procedure was repeated without addition of any test compound to the reaction system. The inhibiting activity was expressed by a concentration at which the histone deacetylase enzyme activity in the control group was inhibited by 50% (50% inhibiting concentration).

B16/BL6 cells [7] = test: Inhibitory effect on histone deacetylation in cells (AUT gel electrophoresis); assay type: cell-based, mouse; settings: Example 1 added at 10 μM, trichostatin A at 1 μM; 6 hours; histone H4 bands
Description: In a culture flask of 75 ml in capacity, 1.5×10^5 B16/BL6 cells were inoculated and preliminarily cultured for 4 days. Then, a given amount of a compound to be tested was added and subsequently cultured for 6 hours. Thereafter, cells were striped using 0.25% trypsin enzyme solution, washed once with PBS and stored temporarily at −80° C.
From this cell sample, histone was separated from chromatin and collected together with other proteins in a conventional manner. The resulting protein sample was subjected to AUTgel electrophoresis in an amount of 1 μg/lane. Said gel was stained with silver to detect bands separated by the migration.
The result on a control group in which no compound to be tested was added is also shown.

B16/BL6 cells [8] = test: Inhibitory effect on cell proliferation (MTS, 48 hours); assay type: cell-based, mouse; settings: 48 hours after addition; read-out: 50% inhibiting concentration
Text: as §1, §2, §3

[9] = enzyme from FM3A cells, [3H]acetyl histone, 37° C. 10 minutes

O=C(CCCC[C@@H]1NC(=O)[C@H]2CCCN2C(=O)[C@H](Cc2ccccc2)NC(=O)[C@H](Cc2ccccc2)NC1=O)NO [HDA-18, cyclo(-Api(NHOH)-Phe-Phe-D-Pro-)]
MHC class-I molecule expression promoting action (B16/BL6 cells [1]): exhibited MHC class-I molecule expression promoting action
Twice Promoting Concentration Cx2 (B16/BL6 cells [1]): 11600 nM
conc. for 2-fold expression (nM) mean (B16/BL6 cells [1]): 10900 nM
IC50 [2]: > 100000 nM
IC50 (leukemia L1210 cell line): > 100000 nM
IC50 [3]: > 100000 nM
IC50 [4]: 59300 nM
IC50 [5]: > 100000 nM
IC50 [6, 9]: 390 nM
IC50 (histone deacetylase): 150 nM

O=C(CCCCCC[C@@H]1NC(=O)[C@H]2CCCN2C(=O)[C@H](Cc2ccccc2)NC(=O)[C@H](Cc2ccccc2)NC1=O)NO [HDA-17, cyclo(-Aaz(NHOH)-Phe-Phe-D-Pro-)]
MHC class-I molecule expression promoting action (B16/BL6 cells [1]): exhibited MHC class-I molecule expression promoting action
Twice Promoting Concentration Cx2 (B16/BL6 cells [1]): 1120 nM
conc. for 2-fold expression (nM) mean (B16/BL6 cells [1]): 990 nM
IC50 [2]: 29300 nM
IC50 (leukemia L1210 cell line): 7380 nM
IC50 [3]: 19900 nM
IC50 [4]: 1260 nM
IC50 [5]: 23500 nM
IC50 [6, 9]: 19.8 nM
IC50 (histone deacetylase): 24.7 nM

CC(/C=C/C(=O)NO)=C\[C@@H](C)C(=O)c1ccc(N(C)C)cc1 [Trichostatin A, trichostatin A, reference compound]
MHC class-I molecule expression promoting action (B16/BL6 cells [1]): MHC class-I molecule expression promoting action was confirmed
MHC class-I molecule expression promoting activity (B16/BL6 cells [1]; allowed to act on animal cells (summary statement)): promotes the expression of MHC class-I molecule
Twice Promoting Concentration Cx2 (B16/BL6 cells [1]): 3.35 nM
inhibitory effect on histone deacetylation (B16/BL6 cells [7]): a total of 5 discrete bands are clearly seen in this region
IC50 (B16/BL6 cells [8]): 14.3 nM
IC50 [2]: 139 nM
IC50 (leukemia L1210 cell line): 12.4 nM
IC50 [3]: 41.7 nM
IC50 [4]: 19.1 nM
IC50 [5]: 621 nM
IC50 (histone deacetylase): 2.55 nM

CC(C)C[C@@H]1NC(=O)[C@@H](Cc2ccccc2)NC(=O)[C@H](CCCCCC(=O)NO)NC(=O)C2CCCCN2C1=O (stereo partly drawn) [HDA-12, cyclo(-Asu(NHOH)-D-Phe-Leu-Pip-)] (cyclo([Asu](NHOH)[dF]L[ξPip]))
MHC class-I molecule expression promoting action (B16/BL6 cells [1]): exhibited MHC class-I molecule expression promoting action
Twice Promoting Concentration Cx2 (B16/BL6 cells [1]): 3.86 nM
conc. for 2-fold expression (nM) mean (B16/BL6 cells [1]): 2.75 nM
IC50 (B16/BL6 cells [8]): 12.3 nM
IC50 [2]: 149 nM
IC50 (leukemia L1210 cell line): 28.3 nM
IC50 [3]: 112 nM
IC50 [4]: 9.44 nM
IC50 [5]: 262 nM

O=C(CCCCC[C@@H]1NC(=O)[C@H]2CCCN2C(=O)[C@H](Cc2ccccc2)NC(=O)[C@H](Cc2ccccc2)NC1=O)NO [HDA-5, cyclo(-Asu(NHOH)-Phe-Phe-D-Pro-)] (cyclo([Asu](NHOH)FF[dP]))
MHC class-I molecule expression promoting action (B16/BL6 cells [1]): exhibited MHC class-I molecule expression promoting action
Twice Promoting Concentration Cx2 (B16/BL6 cells [1]): 135 nM
conc. for 2-fold expression (nM) mean (B16/BL6 cells [1]): 98.2 nM
inhibitory effect on histone deacetylation (B16/BL6 cells [7]): inhibits the deacetylation of histone
IC50 (B16/BL6 cells [8]): 210 nM
IC50 [2]: 2160 nM
IC50 (leukemia L1210 cell line): 500 nM
IC50 [3]: 1660 nM
IC50 [4]: 257 nM
IC50 [5]: 3370 nM
IC50 [6]: 2.18 nM
IC50 (histone deacetylase): 6.03 nM

O=C(CCCCC[C@@H]1NC(=O)[C@H]2CCCN2C(=O)[C@H](Cc2ccccc2)NC(=O)[C@@H](Cc2ccccc2)NC1=O)NO [HDA-27, cyclo(-L-Asu(NHOH)-D-Phe-L-Phe-D-Pro-)] (cyclo([Asu](NHOH)[dF]F[dP]))
conc. for 2-fold expression (nM) mean (B16/BL6 cells [1]): 3.01 nM
IC50 [2]: 277 nM
IC50 (leukemia L1210 cell line): 53 nM
IC50 [3]: 236 nM
IC50 [4]: 18 nM
IC50 [5]: 309 nM
IC50 [6]: 1.45 nM
IC50 (histone deacetylase): 3.44 nM

CC1(C)NC(=O)[C@H](CCCCCC(=O)NO)NC(=O)[C@H]2CCCN2C(=O)[C@H](Cc2ccccc2)NC1=O [HDA-15, cyclo(-Asu(NHOH)-Aib-Phe-D-Pro-)] (cyclo([Aib]F[dP][Asu](NHOH)))
MHC class-I molecule expression promoting action (B16/BL6 cells [1]): exhibited MHC class-I molecule expression promoting action
Twice Promoting Concentration Cx2 (B16/BL6 cells [1]): 36.2 nM
conc. for 2-fold expression (nM) mean (B16/BL6 cells [1]): 33.2 nM
IC50 (B16/BL6 cells [8]): 92.5 nM
IC50 [2]: 908 nM
IC50 (leukemia L1210 cell line): 193 nM
IC50 [3]: 946 nM
IC50 [4]: 110 nM
IC50 [5]: 1230 nM
